In ChEMBL document CHEMBL3120141, “Discovery of (1R,6S)-5-[4-(1-cyclobutyl-piperidin-4-yloxy)-phenyl]-3,4-diaza-bicyclo[4.1.0]hept-4-en-2-one (R,S-4a): histamine H(3) receptor inverse agonist demonstrating potent cognitive enhancing and wake promoting activity” (Bioorg Med Chem Lett, 2014):

Tests used:
[1] = species on record: Homo sapiens; assay: Selectivity ratio for human histamine H3 receptor over human histamine H1 receptor
[2] = target: T1, Histamine H3 receptor (Homo sapiens, UniProt Q9Y5N1); assay: Displacement of [3H]NAMH from human histamine H3 receptor transfected in CHO cells; format: cell-based
[3] = species on record: Homo sapiens; assay: Selectivity ratio for human histamine H3 receptor over human histamine H4 receptor
[4] = species on record: Homo sapiens; assay: Selectivity ratio for human histamine H3 receptor over human histamine H2 receptor
[5] = target: Histamine H3 receptor (Rattus norvegicus, UniProt Q9QYN8); assay: Displacement of [3H]NAMH from rat histamine H3 receptor transfected in CHO cells; format: cell-based
[6] = system: Rattus norvegicus; assay: Oral bioavailability in rat at 5 mg/kg; format: ADME, organism-based; conditions: in vivo
[7] = target: Sodium-dependent dopamine transporter (Homo sapiens) (UniProt Q01959); assay: Inhibition of dopamine transporter (unknown origin) at 10 uM
[8] = target: Cytochrome P450 2C19 (Homo sapiens, UniProt P33261); assay: Inhibition of CYP2C19 (unknown origin); format: ADME
[9] = target: Cytochrome P450 3A4 (Homo sapiens, UniProt P08684); assay: Inhibition of CYP3A4 (unknown origin); format: ADME
[10] = Half life in monkey liver microsomes; format: ADME, Macaca mulatta, Microsome; conditions: rhesus monkey
[11] = Half life in mouse liver microsomes; format: ADME, Microsome
[12] = target: Cytochrome P450 2D6 (Homo sapiens, UniProt P10635); assay: Inhibition of CYP2D6 (unknown origin); format: ADME
[13] = target: Histamine H2 receptor (Homo sapiens) (UniProt P25021); assay: Inhibition of human histamine H2 receptor at 10 uM
[14] = target: Histamine H4 receptor (Homo sapiens) (UniProt Q9H3N8); assay: Inhibition of human histamine H4 receptor at 10 uM
[15] = system: Rattus norvegicus; assay: AUC in rat at 5 mg/kg, po; format: ADME, organism-based, Plasma; parameters: dose 5 mg/kg, route oral; conditions: in vivo
[16] = Half life in dog liver microsomes; format: ADME, Canis lupus familiaris
[17] = target: T2, Cytochrome P450 1A2 (Homo sapiens, UniProt P05177); assay: Inhibition of CYP1A2 (unknown origin); format: ADME
T2 sequence (P05177 whole entry): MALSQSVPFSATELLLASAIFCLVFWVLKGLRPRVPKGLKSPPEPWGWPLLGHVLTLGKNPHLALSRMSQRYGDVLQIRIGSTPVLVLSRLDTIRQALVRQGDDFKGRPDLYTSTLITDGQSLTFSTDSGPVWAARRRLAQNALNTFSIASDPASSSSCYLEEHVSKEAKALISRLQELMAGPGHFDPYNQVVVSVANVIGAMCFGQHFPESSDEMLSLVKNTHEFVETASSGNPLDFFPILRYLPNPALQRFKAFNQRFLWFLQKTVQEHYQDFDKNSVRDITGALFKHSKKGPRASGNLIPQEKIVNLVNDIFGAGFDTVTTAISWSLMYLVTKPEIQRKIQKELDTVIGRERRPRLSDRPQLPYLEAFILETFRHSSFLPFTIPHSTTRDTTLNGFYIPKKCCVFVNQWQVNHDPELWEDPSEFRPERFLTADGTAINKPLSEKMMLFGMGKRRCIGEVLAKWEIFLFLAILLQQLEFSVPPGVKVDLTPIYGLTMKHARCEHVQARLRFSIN

[18] = target: Cytochrome P450 2C9 (Homo sapiens, UniProt P11712); assay: Inhibition of CYP2C9 (unknown origin); format: ADME
[19] = Cmax in rat at 5 mg/kg, po; format: ADME, organism-based; parameters: dose 5 mg/kg, route oral; conditions: in vivo
[20] = target: Voltage-gated inwardly rectifying potassium channel KCNH2 (Homo sapiens, UniProt Q12809); assay: Inhibition of human ERG channel by patch clamp technique
[21] = Ratio of drug uptake in brain to plasma in rat at 10 mg/kg, ip after 6 hrs; format: ADME, organism-based; parameters: dose 10 mg/kg, route intraperitoneal; conditions: read-out: BPR
[22] = Half life in human liver microsomes; format: ADME
[23] = Half life in rat liver microsomes; format: ADME
[24] = Volume of distribution at steady state in rat at 1 mg/kg, iv; format: ADME, organism-based; parameters: dose 1 mg/kg, route intravenous; conditions: in vivo, read-out: Vdss
[25] = Terminal half life in rat at 1 mg/kg, iv; format: ADME, organism-based; parameters: dose 1 mg/kg, route intravenous; conditions: in vivo, read-out: beta t1/2 (converted)
[26] = target: T1, Histamine H3 receptor; assay: Inverse agonist activity at human histamine H3 receptor by [35S]GTPgammaS binding assay; format: functional
[27] = target: Histamine H1 receptor (Homo sapiens) (UniProt P35367); assay: Inhibition of human histamine H1 receptor at 10 uM
[28] = system: Liver microsome; assay: Metabolic stability in rat liver microsomes; format: ADME
[29] = system: Liver microsome; assay: Metabolic stability in dog liver microsomes; format: ADME, Canis lupus familiaris
[30] = Metabolic stability in mouse liver microsomes; format: ADME, Microsome
[31] = system: Liver microsome; assay: Metabolic stability in human liver microsomes; format: ADME

Chain of Histamine H3 receptor (Rattus norvegicus, UniProt Q9QYN8) (Q9QYN8 whole entry): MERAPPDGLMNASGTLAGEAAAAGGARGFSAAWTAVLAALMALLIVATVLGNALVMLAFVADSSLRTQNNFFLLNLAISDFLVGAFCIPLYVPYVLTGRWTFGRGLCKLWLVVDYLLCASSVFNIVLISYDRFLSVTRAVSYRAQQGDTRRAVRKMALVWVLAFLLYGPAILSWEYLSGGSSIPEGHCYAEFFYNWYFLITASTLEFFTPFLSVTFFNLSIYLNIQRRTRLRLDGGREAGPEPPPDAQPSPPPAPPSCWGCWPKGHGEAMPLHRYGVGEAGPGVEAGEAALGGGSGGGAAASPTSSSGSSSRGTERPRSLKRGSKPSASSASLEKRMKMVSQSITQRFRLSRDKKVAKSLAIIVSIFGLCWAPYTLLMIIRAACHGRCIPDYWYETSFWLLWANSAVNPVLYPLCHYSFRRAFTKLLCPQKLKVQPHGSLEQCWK
T1 sequence (Q9Y5N1 whole entry): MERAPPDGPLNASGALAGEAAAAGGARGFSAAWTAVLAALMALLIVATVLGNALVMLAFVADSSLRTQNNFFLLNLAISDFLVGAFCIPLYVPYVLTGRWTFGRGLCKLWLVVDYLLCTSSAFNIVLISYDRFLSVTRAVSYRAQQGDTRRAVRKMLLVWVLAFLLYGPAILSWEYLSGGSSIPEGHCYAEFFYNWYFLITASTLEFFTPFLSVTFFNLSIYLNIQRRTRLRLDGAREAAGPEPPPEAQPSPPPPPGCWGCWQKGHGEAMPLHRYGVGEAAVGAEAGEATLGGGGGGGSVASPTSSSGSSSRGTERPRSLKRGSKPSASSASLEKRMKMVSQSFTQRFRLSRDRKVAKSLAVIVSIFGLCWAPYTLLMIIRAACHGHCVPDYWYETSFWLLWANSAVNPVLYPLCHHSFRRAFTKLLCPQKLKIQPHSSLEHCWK
Chain of Cytochrome P450 2C9 (P11712 whole entry): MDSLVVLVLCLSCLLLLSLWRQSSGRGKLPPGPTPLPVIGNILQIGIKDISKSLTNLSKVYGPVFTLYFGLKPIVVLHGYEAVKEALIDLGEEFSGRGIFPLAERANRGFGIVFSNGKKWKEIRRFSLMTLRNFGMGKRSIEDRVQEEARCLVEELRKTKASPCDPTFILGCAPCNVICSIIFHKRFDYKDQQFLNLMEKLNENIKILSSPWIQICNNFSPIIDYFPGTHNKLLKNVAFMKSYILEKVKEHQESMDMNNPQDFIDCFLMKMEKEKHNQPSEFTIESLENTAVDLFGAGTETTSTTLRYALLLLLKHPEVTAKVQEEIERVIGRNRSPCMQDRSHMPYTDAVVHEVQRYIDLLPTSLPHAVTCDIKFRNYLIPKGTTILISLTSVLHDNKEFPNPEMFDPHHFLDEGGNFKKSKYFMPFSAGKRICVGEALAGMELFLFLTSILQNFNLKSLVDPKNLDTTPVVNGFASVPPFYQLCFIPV
Chain of Cytochrome P450 3A4 (P08684 whole entry): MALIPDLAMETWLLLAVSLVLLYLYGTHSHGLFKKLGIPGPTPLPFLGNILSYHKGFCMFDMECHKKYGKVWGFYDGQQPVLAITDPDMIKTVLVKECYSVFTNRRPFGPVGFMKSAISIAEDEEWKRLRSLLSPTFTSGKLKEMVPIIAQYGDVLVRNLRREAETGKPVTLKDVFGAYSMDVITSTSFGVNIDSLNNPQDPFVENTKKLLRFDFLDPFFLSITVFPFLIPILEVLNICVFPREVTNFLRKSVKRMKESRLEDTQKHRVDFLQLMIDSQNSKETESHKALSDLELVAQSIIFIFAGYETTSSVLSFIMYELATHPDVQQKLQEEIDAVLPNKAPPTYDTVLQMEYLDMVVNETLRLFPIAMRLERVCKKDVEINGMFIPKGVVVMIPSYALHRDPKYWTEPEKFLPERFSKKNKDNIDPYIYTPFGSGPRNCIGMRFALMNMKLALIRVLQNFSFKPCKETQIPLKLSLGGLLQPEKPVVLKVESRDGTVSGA
Chain of Cytochrome P450 2D6 (P10635 whole entry): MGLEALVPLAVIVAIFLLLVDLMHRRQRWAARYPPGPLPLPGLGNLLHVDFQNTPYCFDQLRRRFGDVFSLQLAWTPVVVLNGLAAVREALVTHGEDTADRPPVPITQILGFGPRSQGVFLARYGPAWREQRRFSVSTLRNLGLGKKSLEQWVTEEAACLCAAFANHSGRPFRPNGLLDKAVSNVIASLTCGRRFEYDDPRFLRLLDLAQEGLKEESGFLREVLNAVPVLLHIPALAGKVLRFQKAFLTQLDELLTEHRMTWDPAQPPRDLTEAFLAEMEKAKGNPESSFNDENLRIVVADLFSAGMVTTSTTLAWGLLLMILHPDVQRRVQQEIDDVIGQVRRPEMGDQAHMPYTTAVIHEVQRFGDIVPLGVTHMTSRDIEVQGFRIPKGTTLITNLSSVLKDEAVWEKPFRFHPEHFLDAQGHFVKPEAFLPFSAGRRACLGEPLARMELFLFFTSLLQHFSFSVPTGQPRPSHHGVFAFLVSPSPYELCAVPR
Chain of Cytochrome P450 2C19 (P33261 whole entry): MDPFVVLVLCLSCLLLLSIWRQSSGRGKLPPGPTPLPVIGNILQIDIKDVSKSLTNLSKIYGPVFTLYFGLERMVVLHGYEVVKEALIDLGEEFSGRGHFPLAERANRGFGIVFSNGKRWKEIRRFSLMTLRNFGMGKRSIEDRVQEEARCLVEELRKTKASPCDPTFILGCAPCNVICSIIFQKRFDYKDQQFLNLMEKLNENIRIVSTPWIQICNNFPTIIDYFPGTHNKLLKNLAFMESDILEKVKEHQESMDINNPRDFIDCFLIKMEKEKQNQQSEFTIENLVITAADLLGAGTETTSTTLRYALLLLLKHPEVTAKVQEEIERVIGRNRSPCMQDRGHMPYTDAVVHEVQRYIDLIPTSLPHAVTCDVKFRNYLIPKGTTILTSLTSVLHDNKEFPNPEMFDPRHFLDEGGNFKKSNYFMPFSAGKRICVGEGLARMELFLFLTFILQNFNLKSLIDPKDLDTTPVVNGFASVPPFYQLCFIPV
Chain of Histamine H2 receptor (Homo sapiens) (P25021 whole entry): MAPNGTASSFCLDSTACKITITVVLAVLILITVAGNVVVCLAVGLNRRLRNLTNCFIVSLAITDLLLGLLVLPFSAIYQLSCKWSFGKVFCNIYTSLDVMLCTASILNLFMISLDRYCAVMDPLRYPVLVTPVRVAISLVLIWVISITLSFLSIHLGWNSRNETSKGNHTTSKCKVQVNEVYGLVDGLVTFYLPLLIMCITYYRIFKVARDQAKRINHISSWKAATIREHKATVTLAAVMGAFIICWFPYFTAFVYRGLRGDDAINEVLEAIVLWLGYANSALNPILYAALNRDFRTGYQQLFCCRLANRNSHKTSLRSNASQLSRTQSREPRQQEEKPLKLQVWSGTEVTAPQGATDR
Chain of Histamine H1 receptor (Homo sapiens) (P35367 whole entry): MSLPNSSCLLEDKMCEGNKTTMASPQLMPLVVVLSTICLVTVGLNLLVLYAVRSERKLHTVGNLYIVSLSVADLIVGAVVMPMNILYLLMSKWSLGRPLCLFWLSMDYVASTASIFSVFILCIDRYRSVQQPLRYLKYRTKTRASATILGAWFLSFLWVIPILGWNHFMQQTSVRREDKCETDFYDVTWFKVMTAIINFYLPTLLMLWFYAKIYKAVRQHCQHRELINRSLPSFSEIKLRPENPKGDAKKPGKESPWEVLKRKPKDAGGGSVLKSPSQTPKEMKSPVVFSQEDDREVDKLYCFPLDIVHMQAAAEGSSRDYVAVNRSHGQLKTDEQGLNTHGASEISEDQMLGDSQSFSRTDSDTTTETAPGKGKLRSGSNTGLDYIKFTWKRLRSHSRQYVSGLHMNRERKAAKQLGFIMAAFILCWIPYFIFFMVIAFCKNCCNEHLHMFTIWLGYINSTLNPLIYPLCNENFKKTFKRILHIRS
Chain of Histamine H4 receptor (Homo sapiens) (Q9H3N8 whole entry): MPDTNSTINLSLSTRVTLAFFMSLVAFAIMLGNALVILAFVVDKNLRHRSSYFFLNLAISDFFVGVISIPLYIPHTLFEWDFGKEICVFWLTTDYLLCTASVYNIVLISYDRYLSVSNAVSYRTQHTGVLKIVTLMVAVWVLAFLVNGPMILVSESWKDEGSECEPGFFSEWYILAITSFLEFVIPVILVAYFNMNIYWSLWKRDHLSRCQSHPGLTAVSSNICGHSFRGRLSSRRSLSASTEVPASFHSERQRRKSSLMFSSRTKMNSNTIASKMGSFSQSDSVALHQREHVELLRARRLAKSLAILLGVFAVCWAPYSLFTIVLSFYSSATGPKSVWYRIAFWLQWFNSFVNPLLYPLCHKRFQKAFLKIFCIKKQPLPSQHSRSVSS
Chain of Sodium-dependent dopamine transporter (Homo sapiens) (Q01959 whole entry): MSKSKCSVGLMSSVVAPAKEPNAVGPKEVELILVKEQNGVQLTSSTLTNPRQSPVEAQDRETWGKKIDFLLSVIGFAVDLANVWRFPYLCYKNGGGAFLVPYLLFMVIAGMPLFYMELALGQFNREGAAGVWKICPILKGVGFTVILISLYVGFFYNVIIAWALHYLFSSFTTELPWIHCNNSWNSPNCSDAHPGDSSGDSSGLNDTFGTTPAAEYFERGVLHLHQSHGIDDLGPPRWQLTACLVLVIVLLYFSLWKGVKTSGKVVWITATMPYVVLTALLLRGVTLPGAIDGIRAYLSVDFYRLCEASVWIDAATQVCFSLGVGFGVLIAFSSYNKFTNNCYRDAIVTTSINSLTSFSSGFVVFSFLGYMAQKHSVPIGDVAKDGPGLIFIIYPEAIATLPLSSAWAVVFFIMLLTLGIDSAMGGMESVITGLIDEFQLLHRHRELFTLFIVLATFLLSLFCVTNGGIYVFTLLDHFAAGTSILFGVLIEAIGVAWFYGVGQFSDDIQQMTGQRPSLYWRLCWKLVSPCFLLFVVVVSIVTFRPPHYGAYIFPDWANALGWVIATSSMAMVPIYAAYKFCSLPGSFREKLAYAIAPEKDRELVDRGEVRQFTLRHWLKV

`O=C1C2CC2C(c2ccc(OC3CCN(C4CCC4)CC3)cc2)=NN1c1ccc(F)cc1` (racemic) showed a Selectivity ratio [1] greater than 1000, a Ki [2] of 3.5 nM and a Selectivity ratio [3] greater than 1000. For the same compound, the Selectivity ratio [4] was greater than 1000 and the Ki [5] was 6.7 nM.

In the case of `CC(C)N1CCC(Oc2ccc(C3=NN(C)C(=O)C4CC34)cc2)CC1` (racemic), the Selectivity ratio [1] is reported as greater than 1000, the Ki [2] is reported as 4 nM and the Selectivity ratio [3] is reported as greater than 1000. The Selectivity ratio [4] was greater than 1000 and the Ki [5] was 17 nM.

Work on `O=C1NN=C(c2ccc(OC3CCN(C4CCC4)CC3)cc2)[C@@H]2C[C@H]12` yielded an F [6] of 66%, an inhibition [7] of 63% and an IC50 [8] greater than 30000 nM. The IC50 [9] was greater than 30000 nM, the half-life [10] was greater than 40 min and the half-life [11] was greater than 40 min. It also gave an IC50 [12] greater than 30000 nM, a Ki [2] of 6.8 nM and an inhibition [13] of less than 10%. For the same compound, the inhibition [14] was less than 10%, the AUC [15] was 5144 ng·h/mL and the half-life [16] was greater than 40 min. For the same compound, the IC50 [17] was greater than 30000 nM, the IC50 [18] was greater than 30000 nM and the Cmax [19] was 649 ng/mL. For the same compound, the IC50 [20] was 6000 nM, the Kp at 6 h [21] was 5 and the half-life [22] was greater than 40 min. For the same compound, the half-life [23] was greater than 40 min, the Ki [5] was 12 nM and the Vd [24] was 3 L/kg. The half-life [25] was 96 min, the EC50 [26] was 0.5 nM and the inhibition [27] was less than 10%.

In the case of `O=C1NN=C(c2ccc(OC3CCN(C4CCC4)CC3)cc2)C2CC12` (racemic), the Ki [2] is reported as 4.7 nM and the Ki [5] is reported as 8.4 nM.

`CC(C)N1N=C(c2ccc(OC3CCN(C4CCC4)CC3)cc2)C2CC2C1=O` (racemic) gave a Selectivity ratio [1] greater than 1000, a Ki [2] of 6.9 nM and a Selectivity ratio [3] greater than 1000. It also gave a Selectivity ratio [4] greater than 1000 and a Ki [5] of 5.6 nM.

With `CC(C)N1CCC(Oc2ccc(C3=NNC(=O)C4CC34)cc2)CC1` (racemic) the Stability [28] was “Stable”, the “inhibition (INH)” value ([8]; human) was “Not Active” and the “inhibition (INH)” value ([9]; human) was “Not Active”. For the same compound, the Selectivity ratio [1] was greater than 1000, the “inhibition (INH)” value ([12]; human) was “Not Active” and the Ki [2] was 9.1 nM. For the same compound, the Stability [29] was “Stable”, the Selectivity ratio [3] was greater than 1000 and the “inhibition (INH)” value ([17]; human) was “Not Active”. For the same compound, the Stability [30] was “Stable”, the “inhibition (INH)” value ([18]; human) was “Not Active” and the Selectivity ratio [4] was greater than 1000. The Stability [31] was “Stable” and the Ki [5] was 51 nM.
